Test results from the supplement of paper PMC10307832.

Tests used:
Test in all cases: relative viability (nuclei count vs DMSO), 5 days (fraction); higher = more cells survive
Kobe2602 + Olaparib = compound: C1=CC(=CC=C1NC(=S)NNC2=C(C=C(C=C2[N+](=O)[O-])C(F)(F)F)[N+](=O)[O-])F [Kobe2602] + O=C(c1cc(Cc2n[nH]c(=O)c3ccccc23)ccc1F)N1CCN(C(=O)C2CC2)CC1 [Olaparib] (partner 8 µM)
In short: (§1)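 Lung cancer cell lines in 1536-well plates were dosed by pin tool the day after seeding, either with one drug alone or with a fixed anchor-drug dose plus five library-drug doses (not always all listed) in √10 steps. After 5 days, cells were fixed and their nuclei stained in one step (final 0.05% Triton X-100, 1% formaldehyde, 1 ug/ml Hoechst), then counted on 4× images. Relative viability is the nuclei count in treated wells divided by that in vehicle wells. Values are medians of duplicate plates.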

Cabozantinib + Alpelisib = compound: COc1cc2nccc(Oc3ccc(NC(=O)C4(C(=O)Nc5ccc(F)cc5)CC4)cc3)c2cc1OC [Cabozantinib] + Cc1nc(NC(=O)N2CCC[C@H]2C(N)=O)sc1-c1ccnc(C(C)(C)C(F)(F)F)c1 [Alpelisib] (partner 2 µM)
In short: as §1

Cabozantinib + Dasatinib = compound: COc1cc2nccc(Oc3ccc(NC(=O)C4(C(=O)Nc5ccc(F)cc5)CC4)cc3)c2cc1OC [Cabozantinib] + Cc1nc(Nc2ncc(C(=O)Nc3c(C)cccc3Cl)s2)cc(N2CCN(CCO)CC2)n1 [Dasatinib] (partner 0.075 µM)
In short: as §1

Kobe2602 + Linsitinib = compound: C1=CC(=CC=C1NC(=S)NNC2=C(C=C(C=C2[N+](=O)[O-])C(F)(F)F)[N+](=O)[O-])F [Kobe2602] + C[C@]1(O)C[C@@H](c2nc(-c3ccc4ccc(-c5ccccc5)nc4c3)c3c(N)nccn32)C1 [Linsitinib] (partner 1 µM)
In short: as §1

Cell Line	relative viability (Kobe2602 + Olaparib; first compound 0.2 µM)	relative viability (Kobe2602 + Olaparib; first compound 0.6325 µM)	relative viability (Kobe2602 + Olaparib; first compound 2 µM)	relative viability (Kobe2602 + Olaparib; first compound 6.325 µM)	relative viability (Kobe2602 + Olaparib; first compound 20 µM)	relative viability (Cabozantinib + Alpelisib; first compound 0.02 µM)	relative viability (Cabozantinib + Alpelisib; first compound 0.06325 µM)	relative viability (Cabozantinib + Alpelisib; first compound 0.2 µM)	relative viability (Cabozantinib + Alpelisib; first compound 0.6325 µM)	relative viability (Cabozantinib + Alpelisib; first compound 2 µM)	relative viability (Cabozantinib + Dasatinib; first compound 0.02 µM)	relative viability (Cabozantinib + Dasatinib; first compound 0.06325 µM)	relative viability (Cabozantinib + Dasatinib; first compound 0.2 µM)	relative viability (Cabozantinib + Dasatinib; first compound 0.6325 µM)	relative viability (Cabozantinib + Dasatinib; first compound 2 µM)	relative viability (Kobe2602 + Linsitinib; first compound 0.2 µM)	relative viability (Kobe2602 + Linsitinib; first compound 0.6325 µM)	relative viability (Kobe2602 + Linsitinib; first compound 2 µM)	relative viability (Kobe2602 + Linsitinib; first compound 6.325 µM)	relative viability (Kobe2602 + Linsitinib; first compound 20 µM)
NCI-H1915	0.275	0.251	0.246	0.269	0.307	1.1	1.08	1.03	1.08	1.07	0.32	0.316	0.294	0.352	0.322	1.08	1.12	1.08	1.08	1.1
HCC-827	0.681	0.678	0.683	0.664	0.725	0.977	1.04		0.925	0.9	0.327	0.31		0.262	0.242	0.902	0.936	0.925	0.955	0.922
EMC-BAC-2	0.511	0.531	0.46	0.559	0.532	0.815	0.804	0.744	0.739	0.737	0.244	0.334	0.286	0.292	0.262	0.794	0.869	0.817	0.796	0.793
NCI-H650	0.4	0.443	0.37	0.403	0.401	1.04	1.01	1.13	1.05	0.926		0.504	0.452	0.49	0.445	0.758	1.03	0.912	0.897	0.954
NCI-H1792	0.372	0.556	0.398	0.253	0.566	0.721	0.799	0.721	0.557	0.657		0.878	0.77	0.727	0.644	0.563	0.53	0.613	0.521	0.558
NCI-H2009	0.685	0.701	0.735	0.714	0.736	1.25	1.21	1.16	1.14	1.21	0.289	0.298	0.267	0.217	0.201	1.13	1.2	1.1	1.19	1.15
NCI-H2405	0.915	0.874	0.868	0.905	0.909		0.858	0.838	0.744	0.67	0.171	0.232	0.215	0.212	0.215	0.961	1.06	0.932	0.971	0.994
NCI-H1944	0.475	0.385	0.403	0.432	0.403		0.848	0.78	0.75	0.778	0.183	0.233	0.206	0.221	0.216	1.22	1.26	1.28	1.17	1.29
NCI-H322M	0.737	0.752	0.776	0.875	0.828	0.77	0.881		0.846	0.773	0.259	0.271	0.238	0.264	0.26	0.88	1.01	0.883	1	0.921
NCI-H2085	0.768	0.835	0.848	0.809	0.799	1.15	1.01	0.982	0.915	0.843	0.285	0.268	0.244	0.218	0.216	0.926	0.829	0.864	0.977	0.97
RERF-LC-KJ	0.936	0.957	0.9	0.525	0.282	0.864	0.877	0.733	0.847	0.675	0.84	0.77	0.763	0.853	0.923	0.826	0.868	0.814	0.829	0.824
NCI-H1355	0.742	0.747	0.712	0.727	0.601	0.934	0.873	0.904	0.857	0.732	0.563	0.78	0.73	0.678	0.734	0.784	0.782	0.749	0.769	0.787
PC-14	0.24	0.356	0.256	0.259	0.101	1	1.03		0.901	0.868	0.219	0.339	0.0309	0.246	0.195	0.946	0.986	0.929	0.94	0.929
NCI-H1755	0.848	0.893	0.87	0.853	0.915	0.993	0.919	0.882	0.877	0.764	0.299	0.479	0.396	0.313	0.239	0.949	0.898	0.986	0.977	0.982
NCI-H1651	0.186	0.165	0.189	0.19	0.193	0.883	0.998	0.97	0.952	0.728	0.336	0.39	0.327	0.335	0.396	0.83	1.14	1.07	0.976	0.906
NCI-H661	0.714	0.695	0.697	0.754	0.802	0.544	0.758	0.725	0.755	0.609	0.732	0.838	0.724	0.767	0.772	0.53	0.559	0.629	0.539	0.581
NCI-H358	0.586	0.592	0.589	0.528	0.653	0.912	1.13	0.852	0.803	0.824	0.15	0.194	0.12	0.197	0.19	0.684	0.77	0.771	0.758	0.732
NCI-H1395	0.447	0.487	0.463	0.535	0.486	1.13	1.21	1.06	1.13	1.06	0.363	0.473	0.423	0.458	0.37	0.992	1	1.04	1.05	1.12
HCC-15	0.691	0.727	0.609	0.742	0.837	0.881	0.933	0.925	0.905	0.761	0.548	0.717	0.651	0.568	0.598	0.881	0.919	0.872	0.832	0.899
PC-3 [JPC-3]	1.1	1.22	1.13	1.19	1.13	1.02	1.16		1.06	1.04	0.89	1.21		1.1	0.993	0.952	0.872	0.965	0.976	0.956
HOP-62	0.512	0.523	0.476	0.316	0.472	0.981	1.02	1.43	0.807	1.08	0.603	0.703	0.529	0.579	0.41	0.837	1.11	0.974	1.01	1.12
NCI-H460	0.427	0.416	0.455	0.423	0.43	0.667	0.61	0.459	0.579	0.483	0.321	0.607	0.496	0.493	0.565	0.826	0.768	0.709	0.894	0.725
NCI-H1793	0.91	0.852	0.744	0.883	0.977	0.845	0.864	0.561	0.759	0.637	0.436	0.519	0.343	0.336	0.378	0.856	0.883	0.806	0.831	0.958
NCI-H727	0.748	0.678	0.847		0.736	0.505	0.6	0.593	0.529	0.594	0.298	0.455	0.284	0.348	0.298	0.306	0.319	0.253	0.239	0.324
NCI-H838	0.733	0.779	0.759	0.725	0.764	1.06	1.08	0.989	0.933	0.886	0.251	0.309	0.312	0.338	0.281	0.91	1.12	0.88	0.992	1.07
NCI-H1734	0.601	0.626	0.635	0.642	0.665	0.718	0.681	0.717	0.654	0.638	0.389	0.452	0.467	0.402	0.34	0.895	0.899	0.849	0.964	0.897
EKVX	0.749	0.792	0.864	0.786	0.808	0.788	0.898	0.695	0.886	0.951	0.53	0.592		0.488	0.461	1.02	1.02	0.919	0.971	1.03
